Assay results published in patent publication US9642897B2, “Treatment of bone diseases” (THE UNIVERSITY OF SYDNEY, priority 2011, dated 2017).
Entries after “also recorded” stand apart in the source; their conditions may differ.

How the values were obtained:
RUNX2, OCN and OPN = test: Osteogenic gene expression (RUNX2, OCN, OPN) in differentiating MSC; type: cell-based, human; conditions: for relative gene expression of RUNX2, OCN and OPN: differentiating MSC
Procedure: (§1) Subsequently, the effect of chemical inhibition/stimulation of the intermediate and end products of kynurenine activation on osteogenic differentiating MSC was then characterised.
These compounds were added to the MSC media on day one of differentiation. […] Media was changed every three days. […]

[1] = tested on: gut-derived serotonin (GDS); conditions: Yadav et al. (2010); cited from earlier work
[2] = tested on: mesenchymal stem cells (MSC); test: Mineralization (alizarin red staining) of osteogenic differentiating MSC; type: cell-based, human
Procedure: (§2) Human mesenchymal stem cells (MSC) (BioWhittaker, Walkersville, Md., USA) were plated at a density of 5×10^5 cells per well in 150 cm^2 dishes containing MSC growth medium (GM) (BioWhittaker, Walkersville, Md., USA) with 10% fetal calf serum (FCS) and incubated at 37° C. After the cells reached 60% confluence, media was replaced with either GM or osteoblastogenesis induction media (OIM) (prepared with MSCGM, 10% FCS, […] dexamethasone, 10 mmol/L β glycerol phosphate and 50 μg/mL ascorbic acid) for 21 days. Media was changed every three days. Media obtained at the beginning of the 1st, 2nd and 3rd wk of differentiation as well as conditioned media were collected for measurement of IFNγ. Concentrations of IFNγ in the conditioned media were measured from both GM and OM treated cells using Human […] DuoSet ELISA Development Kit (R&D Systems, Minneapolis, Mich., USA). To compare between the osteogenic and the immune effect of IFNγ, Jurkat cells and human T lymphocytes were plated at a density of 5×10^5 cells per well in 150 cm^2 dishes containing RPMI media.
as §1
These compounds were added to the MSC media on day one of differentiation. Cells were treated for […]. Media was changed every three days. After three weeks of treatment, osteoblastogenesis and changes in osteogenic genes were quantified as described above.

[3] = tested on: bone marrow stromal cells (BMSC) from IDO-1 KO and WT mice; test: Osteogenic differentiation of BMSC from IDO-1 KO and WT mice (alizarin red); type: cell-based; conditions: vs vehicle
Procedure: One side tibiae from 9-month-old IDO-1^−/− and IDO-1^+/+ mice (n=6 per group) were flushed using a 21-gauge needle attached to a 10 ml syringe filled with Dulbecco's modified Eagle's medium (DME) (GIBCO BRL, Gaithersburg, Md., USA). The bone marrow cells were filtered through a cell strainer with a 70-micron nylon mesh (BD Bioscience, Bedford, Mass., USA) and plated in 10 cm^2 tissue culture dishes. The cells were incubated in growth medium at 37° C. with 5% humidified CO2 and isolated by their adherence to tissue culture plastic. Medium was aspirated and replaced with fresh medium every 2 to 3 days to remove non-adherent cells. The adherent MSC were grown to confluency for about 7 days and defined as MSC at passage 0, harvested with 0.25% trypsin and 1 mM EDTA for 5 min at 37° C., diluted 1:3 in growth medium, plated and grown to confluency for further expansion. After 2nd and 3rd passages, MSC were used for subsequent experiments.
To induce differentiation, a total of 10^4 cells were diluted in osteogenic medium and plated in 24 dishes per group in the presence or absence of either quinolinic or picolinic acid. Media was aspirated and replaced with fresh osteogenic medium every 3 days. At 21 days, medium was removed and cultures were fixed in 10% v/v formol/saline solution for 5 min. Cultures were stained with Alizarin Red, which was then extracted and quantified at 570 nm.

IDO-1 gene expression [4] = test: IDO-1 gene expression in osteogenic differentiating MSC (cDNA array / real time PCR); type: cell-based, human; conditions: for increase in IDO-1 expression: differentiating osteoblasts
Procedure: as §2
Cells were treated with either IFNγ (100 nM) or vehicle for two weeks. At week 2, total RNA was extracted from treated MSC, Jurkat T lymphocytes using an Easy-Kit mini prep (Qiagen, Valencia, Calif., USA). Generation of cDNA, fluorescent labeling, hybridization to the gene chip and data analysis were performed by the Genomics Laboratory at Ramacciotti Institute (Sydney, Australia). 12,000 human genes were examined and expressed sequences tags (ESTs) on the array Human Genome U95A (Affymetrix, Inc. Santa Clara, Calif., USA) and analyzed the results using the MicroDB™ Software (Affymetrix, Inc. Santa Clara, Calif., USA). Expression values of the differentiated and non-differentiated MSC and between MSC vs. Jurkat cells and T lymphocytes were compared using Student's t test. Genes with significant changes were then grouped depending on their known function. The biological function of each gene product was obtained from literature searches in medical databases. This experiment was repeated twice and significant changes in gene expression determined by the method of biological duplicates.
A cDNA gene array analysis was performed in MSC induced to differentiate into osteoblasts using osteogenic media for 7 days while being treated with an anabolic dose of IFNγ (100 nM) in vitro. A comparison of was made of cDNA data obtained from differentiating MSC, human primary T-lymphocytes and Jurkat cells either untreated or treated with IFNγ (FIG. 1). The aims of this approach were not only to characterise the osteogenic effect of IFNγ on osteogenic differentiating MSC, but also to compare the osteogenic vs. the immunogenic profile of IFNγ. […]

[5] = rats; cited from earlier work
TPH-1 gene expression = TPH-1 gene expression in IFNγ-treated immune cells (Jurkat cells, T lymphocytes); type: cell-based, human; conditions: immune cells treated with IFNγ
Procedure: as §2, with “To compare between the osteogenic and the immune effect of IFNγ, Jurkat cells and human T lymphocytes were plated at a density of 5×10^5 cells per well in 150 cm^2 dishes containing RPMI media.” left out
(§3) Cells were treated with either IFNγ (100 nM) or vehicle for two weeks. […] 12,000 human genes were examined and expressed sequences tags (ESTs) on the array Human Genome U95A (Affymetrix, Inc. Santa Clara, Calif., USA) and analyzed the results using the MicroDB™ Software (Affymetrix, Inc. Santa Clara, Calif., USA). […] This experiment was repeated twice and significant changes in gene expression determined by the method of biological duplicates. […]

IDO-1 gene expression [6] = test: IDO-1 gene expression in IFNγ-treated immune cells (Jurkat cells, T lymphocytes); type: cell-based, human; conditions: immune cells treated with IFNγ
Procedure: as §2, with “To compare between the osteogenic and the immune effect of IFNγ, Jurkat cells and human T lymphocytes were plated at a density of 5×10^5 cells per well in 150 cm^2 dishes containing RPMI media.” left out
as §3

IDO-1 [7] = test: Kynurenine/tryptophan ratio by HPLC in differentiating MSC; type: cell-based, human; conditions: MSC treated with IFNγ
serotonin = test: Serotonin concentrations in MSC supernatants (ELISA); type: cell-based, human; conditions: IFNγ treated vs untreated cells
From the text: In addition, there was no difference in the serotonin concentrations (measured using ELISA) in the supernatants obtained from osteoblastogenesis induction media (OIM)- and IFNγ-treated vs. untreated cells. […] This effect is independent of serotonin concentration in the media.

IDO-1 [8] = test: Immunohistochemistry of IDO-1 in gut and bone of IFNγ-treated mice; type: in vivo, C57BL/6 mice; conditions: IFNγ 2,000 IU, 3 times a week for 6 weeks
Procedure: (§4) Animals were purchased from Jackson Laboratories (Bar Harbor, Me., USA). 8-week-old virgin female C57BL/6 mice (Charles River Laboratories, Quebec, Canada) were used to study the effect of exogenous administration of IFN-γ on bone and gut expression of IDO-1 and TPH-1. Bilateral ovariectomies (OVX) were performed under general anesthesia. Another group of animals was sham-operated (SHAM), in which ovaries were exteriorized but replaced intact. Two weeks after surgery, mice (OVX and SHAM) received intraperitoneal injections of 2000 IU of IFN-γ (R&D Systems, Inc., Minneapolis, Minn., USA) or vehicle (PBS) three times weekly for a total of 6 weeks. Mice were housed in cages in a limited-access room. Animal husbandry adhered to Canadian Council on Animal Care Standards, and all protocols were approved by the McGill University Health Center Animal Care Utilization Committee. […]
(§5) For immunohistochemistry, gut and bone sections were incubated overnight at 4° C. with a goat polyclonal antibody IgG against either IDO-1 or TPH-1 (Santacruz Biotechnology Inc. Santa Cruz Calif., USA), Primary antibody was detected by incubation with an anti-goat IgG secondary antibody conjugated with horseradish peroxidase (1:300 in BSA 1%, Sigma-Aldrich, St. Louis, Mo., USA)]. […] Photographs were taken under an Olympus fluorescence microscope controlled by an IPLab system. […]

TPH-1 = test: Immunohistochemistry of TPH-1 in gut and bone of IFNγ-treated mice; type: in vivo, C57BL/6 mice; conditions: IFNγ 2,000 IU, 3 times a week for 6 weeks
Procedure: as §4, §5

gut derived serotonin = test: Gut derived serotonin (GDS) in gut of IFNγ-treated mice; type: in vivo, C57BL/6 mice; conditions: IFNγ 2,000 IU, 3 times a week for 6 weeks
Procedure: Animals were purchased from Jackson Laboratories (Bar Harbor, Me., USA). 8-week-old virgin female C57BL/6 mice (Charles River Laboratories, Quebec, Canada) were used to study the effect of exogenous administration of IFN-γ on bone and gut expression of IDO-1 and TPH-1. Bilateral ovariectomies (OVX) were performed under general anesthesia. Another group of animals was sham-operated (SHAM), in which ovaries were exteriorized but replaced intact. Two weeks after surgery, mice (OVX and SHAM) received intraperitoneal injections of 2000 IU of IFN-γ (R&D Systems, Inc., Minneapolis, Minn., USA) or vehicle (PBS) three times weekly for a total of 6 weeks. Mice were housed in cages in a limited-access room. Animal husbandry adhered to Canadian Council on Animal Care Standards, and all protocols were approved by the McGill University Health Center Animal Care Utilization Committee.
One side femur and proximal gut from each animal in each group was removed at the time of euthanization. Bone was fixed in 70% ethanol, dehydrated, and embedded undecalcified in methyl methacrylate (J-T Baker, Phillipsburg, N.J., USA). At 50-μm intervals, longitudinal sections 5- and 8-μm thick were cut using a Polycut-E microtome (Reichert-Jung Leica, Heerbrugg, Switzerland). Gut was fixed and embedded in paraffin for future analysis. Gut sections were obtained as described above.

[9] = 1000 nM quinolinic acid, 14 days, vs untreated cells

## Nc1ccccc1C(=O)CC(N)C(=O)O [L-kynurenine, 2-amino-4-(2-aminophenyl)-4-oxo-butanoic acid, reference compound]
RUNX2, OCN and OPN
  relative gene expression of RUNX2, OCN and OPN: not

## Nc1nc(OC(c2ccc(-c3cccc(F)c3)cc2)C(F)(F)F)cc(-c2ccc(C[C@H](N)C(=O)O)cc2)n1 (stereo partly shown) [LP533401]
[1]
  bone formation / osteoporosis in OVX mice: stimulates bone formation and recues OVX mice from osteoporosis

## O=C(O)c1cccnc1C(=O)O [QA, 2,3-Pyridinedicarboxylic acid]
[2]; MSC in OIM, 2 weeks
  osteoblastogenesis / mineralisation (alizarin red): accelerated mineralisation; also recorded: stimulate osteoblastogenesis
RUNX2, OCN and OPN; [9]
  relative expression (RE) RUNX2: 3 fold
  relative expression (RE) osteopontin: 6 fold
RUNX2, OCN and OPN
  relative gene expression of RUNX2, OCN and OPN: increased
[3]
  mineralisation (alizarin red staining): higher levels of mineralisation

## CN[C@H](Cc1c[nH]c2ccccc12)C(=O)O [methyl-D-tryptophan, reference compound]
IDO-1 gene expression [4]; day 14 of differentiation, in the presence of inhibitor, vs control
  RE of IDO-1: 0.02
[2]; inhibition of IDO-1
  mineralization measured by alizarin red: significant decrease
RUNX2, OCN and OPN; with IDO-1 inhibition
  osteogenic genes expression: reduced

## CC[C@H](C)[C@H](NC(=O)[C@H](CCC(=O)O)NC(=O)[C@H](CO)NC(=O)[C@@H](NC(=O)[C@@H](N)CO)C(C)C)C(=O)N[C@@H](CCC(N)=O)C(=O)N[C@@H](CC(C)C)C(=O)N[C@@H](CCSC)C(=O)N[C@@H](Cc1cnc[nH]1)C(=O)N[C@@H](CC(N)=O)C(=O)N[C@@H](CC(C)C)C(=O)NCC(=O)N[C@@H](CCCCN)C(=O)N[C@@H](Cc1cnc[nH]1)C(=O)N[C@@H](CC(C)C)C(=O)N[C@@H](CC(N)=O)C(=O)N[C@@H](CO)C(=O)N[C@@H](CCSC)C(=O)N[C@@H](CCC(=O)O)C(=O)N[C@@H](CCCN=C(N)N)C(=O)N[C@H](C(=O)N[C@@H](CCC(=O)O)C(=O)N[C@@H](Cc1c[nH]c2ccccc12)C(=O)N[C@@H](CC(C)C)C(=O)N[C@@H](CCCN=C(N)N)C(=O)N[C@@H](CCCCN)C(=O)N[C@@H](CCCCN)C(=O)N[C@@H](CC(C)C)C(=O)N[C@@H](CCC(N)=O)C(=O)N[C@@H](CC(=O)O)C(=O)N[C@H](C(=O)N[C@@H](Cc1cnc[nH]1)C(=O)N[C@@H](CC(N)=O)C(=O)N[C@@H](Cc1ccccc1)C(=O)O)C(C)C)C(C)C [teriparatide]
[5]
  tumour growth: cause malignant tumour growth (osteogenic carcinoma)

## IFNγ: interferon gamma, stimulator of IDO-1
IDO-1 gene expression [4]; IFNγ 100 nM, differentiating MSC in osteogenic media 7 days, vs untreated MSC and immune cells
  IDO-1 gene expression: 12 fold
IDO-1 gene expression [4]; 14th day
  increase in IDO-1 expression: 13 fold
IDO-1 gene expression [4]; after 7 days
  increase in IDO-1 expression: 36 fold
TPH-1 gene expression
  TPH-1 gene expression: high levels
IDO-1 gene expression [6]
  IDO-1 gene expression: without affecting
[2]; IFNγ 100 ng/ml, one week of osteogenic differentiation, vs vehicle
  mineralization (alizarin red staining): higher levels of mineralization
IDO-1 [7]
  kynurenine/tryptophan ratio (tryptophan degradation): higher kynurenine/tryptophan ratio
serotonin
  serotonin concentrations in the supernatants: No changes
IDO-1 [8]
  levels of IDO-1 in gut and bone marrow: higher levels of IDO-1
TPH-1
  expression of TPH-1 in gut and bone: remains unaltered
Gut derived serotonin
  GDS in the gut: remains unaltered
